According to US20240293558A1, “KRAS INHIBITOR CONJUGATES” (Erasca, Inc., priority 2021, published 2024):

Columns and labels:
[1] = molecular target: T1, KRas G12D fused to HiBiT peptide (Homo sapiens, UniProt P01116, G12D); assay: ASPC-1 HiBit assay to determine G12D degradation; assay type: cell-based; conditions: AsPC-1 HiBiT cells, 24-hour incubation; read-out: ASPC-1 HiBit DC50 (C)
T1 construct: endogenous in cells; host or cells: AsPC-1 HiBiT knock-in single clone (Cas9 RNP + ssODN)
Protocol: Compounds presented herein induce degradation of the KRas G12D (KRasG12D) upon treatment of engineered cancer cell line.
The degradation of the KRasG12D in cellular environment was measured using engineered homozygous KRasG12D AsPC-1 cell line in which KRas G12D was fused to luminescent HiBiT peptide at the N-terminal. The small (1.3 kDa) HiBiT peptide complements with high affinity to a larger (18 kDa) subunit evolved from NanoLuc (termed LgBiT). The resulting complex (i.e., reconstituted luciferase enzyme) generates bright luminescence that translates to high sensitivity (1 amol), broad dynamic range (four orders of magnitude), and rapid kinetics for real time quantitation.
To generate HiBit KRasG12D knock-in cell line, sgRNA (SEQ. ID NO: 1) and ssODN (SEQ. ID NO: 2) were designed and synthesized at GenScript.
RNP complex was generated by mixing of 100 pmol of Cas9 protein to PCR tubes containing 300 pmol sgRNA incubating the resultant complex at room temperature for 20 min. […] ssODN was added to RNP complex slowly and RNP-ssODN complex was incubated at room temperature for 10 min. RNP-ssODN complex was mixed with […] of AsPC-1 cells (1×10^6 cells total) and electroporated using Nucleofactor (Program CM-150). Cells were then incubated at ambient temperature for 5 min and transferred to a six-well plate containing 2 ml growth medium.
To select pools with the highest luminescence signal, 10^4 cells of parental AsPC-1 and transfected pools were plated in solid white 384-well tissue culture plates. 24 hours after seeding, HiBiT was detected using the Nano-Glo HiBiT Lytic Detection System (Promega) following manufacturer's instructions. Briefly, […] of Nano-Glo HiBiT Lytic Detection Reagent was added directly to the cells and mixed by inversion before recording luminescence on an Envision (Perkin-Elmer) with 0.5 s integration time.
Single clones were isolated from stable pool by limited dilution method and presence of HiBiT knock-in was verified by TA cloning and subsequent sequencing. Additionally, western blotting analysis was conducted to confirm selection of single clones with high luminescence signal.
For DC50S measurements, AsPC-1 HiBiT single clone cells were grown in RPMI 1640 medium (Invitrogen 22400-089) supplemented with 10% fetal bovine serum. Cells were seeded in 384-well tissue culture plates at a density of 7,000 cells/well and allowed to attach for 24 hours.
Test compounds were distributed directly into assay plate with the adjustment for DMSO concentration using Tecan HP D300e. For most of the experiments, the final concentration of compounds starts from 10 μM, 3-fold dilution dose response and 10 doses. […] DMSO final concentration is 1%. Each concentration of exemplary compound was tested as singleton. The negative control wells were cells with DMSO only, and the positive control wells were cells with […] inhibitor.
Following 24-hour incubation with the compounds plate and Nano-Glo® HiBiT Lytic reagents were equilibrated to room temperature. 20 μL of HiBiT Lytic reagent were added to each well. The assay plate was incubated on digital microplate shaker (350 rpm) for 20 min followed by centrifugation at 500 g for 1 min. Luminescence was recorded using Envision (Perkin-Elmer) using aperture 384-L1 with 0.1 s integration time.
HiBiT signal are used to calculate the % degradation at given compound concentration using the following formula:
% Degradation=(1−(Sample HiBiT signal−Ave Min signal)/(Ave Max signal−Ave Min signal))*100%
For DC50 calculation, the data with the hook effect were removed first and DC50S was reported using a 4-parameter fit of dose response curve using GraphPad in those cases where maximum % degradation was >50% and Minimal % degradation was <50%. The decrease in DC50 reflects that the exemplary compound led to a higher level of degradation of KRasG12D than another exemplary compound at specific timepoint of treatment of cancer cell line. […]

KRAS G12D = KRAS G12D (Homo sapiens, UniProt P01116, G12D); assay: In-vitro RAS-RAF binding assay (RRB), HTRF/FRET; assay type: biochemical; set-up: Biotinylated KRAS protein amino acids 1-169 (produced at Erasca); made in house; conditions: Table 2, average of multiple runs of each compound; read-out: Inhibition of RAS-RAF Binding (in-vitro) KRAS (G12D) IC50
Sequence of KRAS G12D (P01116 1-169 isoform P01116-2 G12D): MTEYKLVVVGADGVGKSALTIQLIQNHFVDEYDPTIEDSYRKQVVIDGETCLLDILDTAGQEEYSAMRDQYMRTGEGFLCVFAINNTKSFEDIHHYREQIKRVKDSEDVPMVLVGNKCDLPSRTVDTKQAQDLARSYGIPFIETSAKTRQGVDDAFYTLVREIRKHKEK
Method in brief: (§1)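 Biotinylated KRAS 1-169 (streptavidin-terbium donor, 30 nM) and GST-cRAF RBD (anti-GST d2 acceptor, 30 nM) in HEPES pH 7.5, NaCl, MgCl2, DTT buffer. After compound incubation, SOS1 catalytic domain plus GTPgS drive 60 min nucleotide exchange. HTRF FRET read at equilibrium, in duplicate.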

KRAS (WT) = molecular target: T2, KRAS (WT) (Homo sapiens, UniProt P01116); assay: In-vitro RAS-RAF binding assay (RRB), HTRF/FRET; assay type: biochemical; conditions: Table 2, average of multiple runs of each compound; read-out: Inhibition of RAS-RAF Binding (in-vitro) KRAS (WT) IC50
T2 construct: Biotinylated KRAS protein amino acids 1-169 (produced at Erasca); made in house
T2 sequence (P01116 1-169 isoform P01116-2): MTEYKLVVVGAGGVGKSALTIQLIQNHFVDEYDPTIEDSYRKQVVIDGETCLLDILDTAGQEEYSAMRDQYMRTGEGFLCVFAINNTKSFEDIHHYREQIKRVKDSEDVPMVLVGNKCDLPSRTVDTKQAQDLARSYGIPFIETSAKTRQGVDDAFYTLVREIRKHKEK
Method in brief: as §1

T1 sequence (P01116 1-188 isoform P01116-2 G12D): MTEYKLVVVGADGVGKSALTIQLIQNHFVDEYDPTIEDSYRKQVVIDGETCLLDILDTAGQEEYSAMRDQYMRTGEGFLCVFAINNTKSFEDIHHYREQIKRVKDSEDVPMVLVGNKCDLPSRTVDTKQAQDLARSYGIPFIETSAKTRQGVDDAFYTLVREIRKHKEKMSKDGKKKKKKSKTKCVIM

| DC50 [1] [nM] | IC50 (KRAS G12D) [nM] | IC50 (KRAS (WT)) [nM] | SMILES |
| --- | --- | --- | --- |
| 843 | 23.9 | 836 | CC(C)[C@@H](C(=O)N1C[C@H](O)C[C@H]1C(=O)N[C@@H](C)c1ccc(-c2c(F)cc(F)cc2F)cc1)c1cc(N2CC3(CCN(CCOc4nc(N5CC6CCC(C5)N6)c5cc(C(F)(F)F)c(-c6ccc(F)c7sc(N)c(C#N)c67)c(F)c5n4)CC3)C2)no1 [Example 75, (2S,4R)-1-((2R)-2-(3-(7-(2-((7-(2-amino-3-cyano-7-fluorobenzo[b]thiophen-4-yl)-4-(3,8-diazabicyclo[3.2.1]octan-3-yl)-8-fluoro-6-(trifluoromethyl)quinazolin-2-yl)oxy)ethyl)-2,7-diazaspiro[3.5]nonan-2-yl)isoxazol-5-yl)-3-methylbutanoyl)-4-hydroxy-N-((S)-1-(2′,4′,6′-trifluoro-[1,1′-biphenyl]-4-yl)ethyl)pyrrolidine-2-carboxamide] |
| 38 | 9.2 | 67 | C[C@H](NC(=O)[C@@H]1C[C@@H](O)CN1C(=O)[C@@H](NC(=O)CCOCCCN1CCC[C@H]1COc1nc(N2CC3CCC(C2)N3)c2cc(C(F)(F)F)c(-c3ccc(F)c4sc(N)c(C#N)c34)c(F)c2n1)C(C)(C)C)c1ccc(-c2cccc(F)c2F)cc1 [Example 94, (2S,4R)-1-((2S)-2-(3-(3-((2S)-2-((((7S)-7-(2-amino-3-cyano-7-fluorobenzo [b]thiophen-4-yl)-4-(3,8-diazabicyclo[3.2.1]octan-3-yl)-8-fluoro-6-(trifluoromethyl)quinazolin-2-yl)oxy)methyl)pyrrolidin-1-yl)propoxy)propanamido)-3,3-dimethylbutanoyl)-N—((S)-1-(2′,3′-difluoro-[1,1′-biphenyl]-4-yl)ethyl)-4-hydroxypyrrolidine-2-carboxamide] |
| 43 | 8.5 | 65 | C[C@H](NC(=O)[C@@H]1C[C@@H](O)CN1C(=O)[C@@H](NC(=O)CCOCCCN1CCC[C@H]1COc1nc(N2CC3CCC(C2)N3)c2cc(C(F)(F)F)c(-c3ccc(F)c4sc(N)c(C#N)c34)c(F)c2n1)C(C)(C)C)c1ccc(-c2ccccc2Cl)cc1 [Example 95, (2S,4R)-1-((2S)-2-(3-(3-((2S)-2-((((7S)-7-(2-amino-3-cyano-7-fluorobenzo [b]thiophen-4-yl)-4-(3,8-diazabicyclo [3.2.1]octan-3-yl)-8-fluoro-6-(trifluoromethyl)quinazolin-2-yl)oxy)methyl)pyrrolidin-1-yl)propoxy)propanamido)-3,3-dimethylbutanoyl)-N—((S)-1-(2′-chloro-[1,1′-biphenyl]-4-yl)ethyl)-4-hydroxypyrrolidine-2-carboxamide] |
| 75 | 9.2 | 156 | C[C@H](NC(=O)[C@@H]1C[C@@H](O)CN1C(=O)[C@@H](NC(=O)CCOCCCN1CCC[C@H]1COc1nc(N2CC3CCC(C2)N3)c2cc(Cl)c(-c3ccc(F)c4sc(N)c(C#N)c34)c(F)c2n1)C(C)(C)C)c1ccc(-c2ccccc2Cl)cc1 [Example 96, (2S,4R)-1-((2S)-2-(3-(3-((2S)-2-((((7R)-7-(2-amino-3-cyano-7-fluorobenzo[b]thiophen-4-yl)-4-(3,8-diazabicyclo[3.2.1]octan-3-yl)-6-chloro-8-fluoroquinazolin-2-yl)oxy)methyl)pyrrolidin-1-yl)propoxy)propanamido)-3,3-dimethylbutanoyl)-N—((S)-1-(2′-chloro-[1,1′-biphenyl]-4-yl)ethyl)-4-hydroxypyrrolidine-2-carboxamide] |
| 108 | 9.55 | 188 | C#Cc1c(F)ccc2cc(O)cc(-c3ncc4c(N5CC6CCC(C5)N6)nc(OCCN5CCC(COc6cc([C@H](C(=O)N7C[C@H](O)C[C@H]7C(=O)N[C@@H](C)c7ccc(-c8scnc8C)cc7)C(C)C)on6)CC5)nc4c3F)c12 [Example 60, (2S,4R)-1-((2R)-2-(3-((1-(2-((4-(3,8-diazabicyclo[3.2.1]octan-3-yl)-7-(8-ethynyl-7-fluoro-3-hydroxynaphthalen-1-yl)-8-fluoropyrido[4,3-d]pyrimidin-2-yl)oxy)ethyl)piperidin-4-yl)methoxy)isoxazol-5-yl)-3-methylbutanoyl)-4-hydroxy-N-((S)-1-(4-(4-methylthiazol-5-yl)phenyl)ethyl)pyrrolidine-2-carboxamide] |
| 330 | 17.6 | 1100 | CC(C)[C@@H](C(=O)N1C[C@H](O)C[C@H]1C(=O)N[C@@H](C)c1ccc(-c2c(F)cccc2F)cc1)c1cc(N2CC3(CCN(CCOc4nc(N5CC6CCC(C5)N6)c5cc(C(F)(F)F)c(-c6ccc(F)c7sc(N)c(C#N)c67)c(F)c5n4)CC3)C2)no1 [Example 77, (2S,4R)-1-((2R)-2-(3-(7-(2-((7-(2-amino-3-cyano-7-fluorobenzo[b]thiophen-4-yl)-4-(3,8-diazabicyclo[3.2.1]octan-3-yl)-8-fluoro-6-(trifluoromethyl)quinazolin-2-yl)oxy)ethyl)-2,7-diazaspiro[3.5]nonan-2-yl)isoxazol-5-yl)-3-methylbutanoyl)-N-((S)-1-(2′,6′-difluoro-[1,1′-biphenyl]-4-yl)ethyl)-4-hydroxypyrrolidine-2-carboxamide] |
| 247 | 24.9 | 3140 | CC(C)[C@@H](C(=O)N1C[C@H](O)C[C@H]1C(=O)N[C@@H](C)c1ccc(-c2c(F)cccc2F)cc1)c1cc(OCC2CCN(CCOc3nc(N4CC5CCC(C4)N5)c4cc(C(F)(F)F)c(-c5ccc(F)c6sc(N)c(C#N)c56)c(F)c4n3)CC2)no1 [Example 18, (2S,4R)-1-((2R)-2-(3-((1-(2-((7-(2-amino-3-cyano-7-fluorobenzo[b]thiophen-4-yl)-4-(3,8-diazabicyclo[3.2.1]octan-3-yl)-8-fluoro-6-(trifluoromethyl)quinazolin-2-yl)oxy)ethyl)piperidin-4-yl)methoxy)isoxazol-5-yl)-3-methylbutanoyl)-N—((S)-1-(2′,6′-difluoro-[1,1′-biphenyl]-4-yl)ethyl)-4-hydroxypyrrolidine-2-carboxamide] |
| ≥ 10000 | 20 | 5000 | CC(C)[C@H](C(=O)N1C[C@H](O)C[C@H]1C(=O)N[C@@H](C)c1ccc(-c2c(F)cc(F)cc2F)cc1)c1cc(N2CC3(CCN(CCOc4nc(N5CC6CCC(C5)N6)c5cc(Cl)c(-c6ccc(F)c7sc(N)c(C#N)c67)c(F)c5n4)CC3)C2)no1 [Example 67, (2S,4R)-1-((2S)-2-(3-(7-(2-((7-(2-amino-3-cyano-7-fluorobenzo[b]thiophen-4-yl)-4-(3,8-diazabicyclo[3.2.1]octan-3-yl)-6-chloro-8-fluoroquinazolin-2-yl)oxy)ethyl)-2,7-diazaspiro[3.5]nonan-2-yl)isoxazol-5-yl)-3-methylbutanoyl)-4-hydroxy-N-((S)-1-(2′,4′,6′-trifluoro-[1,1′-biphenyl]-4-yl)ethyl)pyrrolidine-2-carboxamide] |
